Consider 13 compounds from patent publication US8507509B2, “Saturated and insaturated bi- or tricyclic aryloxyacetamine derivatives and their use as fungicides” (Syngenta Crop Protection LLC, priority 2007, dated 2013).

The structures appear in SMILES notation. Where only a bound is given, the exact number is not on record here.

Series [1] deals with Puccinia recondita f.sp. tritici. In words: Puccinia recondita f.sp. tritici (wheat brown rust), wheat leaf segment assay, preventive. As to conditions: foliar, 216 h, 200 ppm, wheat leaf segments, assessed nine days after inoculation, read-out: control of fungal infection, Puccinia recondite f.sp. tritici. Format: in vivo.
In series [2] the test system is Pythium ultimum. The series is described as follows: Pythium ultimum (Damping off), liquid culture growth inhibition in potato dextrose broth. It is filed as cell-based. As to conditions: Globisporangium ultimum; 20 ppm; potato dextrose broth, 24° C.; inhibition of growth determined photometrically after 48 hours; read-out: control of fungal infection, Pythium ultimum.

The test system of series [3] is Plasmopara viticola. The series is described as follows: Plasmopara viticola (downy mildew of grapevine), grapevine leaf disk assay, preventive. As to conditions: foliar, 168 h, 200 ppm, grapevine leaf disks, assessed seven days after inoculation, read-out: control of fungal infection, Plasmopara viticola. It is filed as in vivo.
Series [4] relates to Septoria tritici. The series is described as follows: Septoria tritici (leaf blotch), liquid culture growth inhibition in nutrient broth. It is filed as cell-based. As to conditions: Zymoseptoria tritici; 200 ppm; PDB broth, 24 C; inhibition of growth determined photometrically after 72 hrs; read-out: control of fungal infection, Septoria tritici.
Series [5] relates to Pyricularia oryzae. In words: whole plant or invertebrate. Format: in vivo. As to conditions: foliar, 96 h, read-out: control of fungal infection, Pyricularia oryzae.
Series [6] has as its system Erysiphe graminis f.sp. tritici. The series is described as follows: Erysiphe graminis f.sp. tritici (wheat powdery mildew), wheat leaf segment assay, preventive. It is filed as in vivo. As to conditions: Blumeria graminis, foliar, 96 h; 200 ppm; wheat leaf segments; assessed four days after inoculation; read-out: control of fungal infection, Etysiphe graminis f.sp. tritici.

The subject of series [7] is Septoria nodorum. In words: Septoria nodorum (wheat glume blotch), wheat leaf segment assay, preventive. As to conditions: Parastagonospora nodorum, foliar, 96 h; 200 ppm; wheat leaf segments; assessed four days after inoculation; read-out: control of fungal infection, Septoria nodorum. Format: in vivo.
For series [8], the system named is Phytophthora infestans. The series is described as follows: whole plant or invertebrate. The conditions noted are these: in Solanum lycopersicum, foliar, 96 h, read-out: control of fungal infection, Phytophthora infestans. It is filed as in vivo.
Series [9] concerns Fusarium culmorum. In words: Fusarium culmorum (root rot), liquid culture growth inhibition in nutrient broth. Format: cell-based. As to conditions: PDB broth, 24 C, inhibition of growth determined photometrically after 48 hrs, read-out: control of fungal infection, Fusarium culmorum. An outline of the steps: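 Fusarium culmorum conidia from cryogenic storage were mixed into potato dextrose broth and added to compound pre-dispensed from DMSO (diluted in 0.025% Tween20). Incubated at 24 C in the dark; growth inhibition read photometrically after 48 hrs.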

Series [10] deals with Botrytis cinerea. The series is described as follows: Botrytis cinerea (grey mould), bean leaf disk assay, preventive. It is filed as in vivo. The conditions noted are these: foliar, 96 h, 200 ppm, bean leaf disks, assessed four days after inoculation, read-out: control of fungal infection, Botrytis cinerea.

In the case of `C#Cc1cnc2ccc(OC(SC)C(=O)NC(C)(C)C=NOCC)cc2c1` (single isomer, unassigned) [Compound No. 119, N-(2-Ethoxyimino-1,1-dimethyl-ethyl)-2-(3-ethynyl-quinolin-6-yloxy)-2-methylsulfanyl-acetamide], the pest or weed control at 200 ppm in series [1], in [3], in [5], in series [6], in series [7] and in [8] was ≥ 60% throughout. Also, the inhibition of growth at 20 ppm in series [2] was ≥ 60%. The inhibition of growth at 200 ppm in series [4] is ≥ 60%.

With `CON=CC(C)(C)NC(=O)C(Oc1ccc2ncc(Br)cc2c1)SC` (stereo not shown) [Compound No. 15, 2-(3-Bromo-quinolin-6-yloxy)-N-(2-methoxyimino-1,1-dimethyl-ethyl)-2-methylsulfanyl-acetamide], the inhibition of growth at 20 ppm in series [2] was ≥ 60%. Also, the pest or weed control at 200 ppm in [3], in series [5], in series [6] and in [8] was ≥ 60% each time. Further, in series [4], the inhibition of growth at 200 ppm is ≥ 60%.

With `CCON=CC(C)(C)NC(=O)C(Oc1ccc2ncc(Br)cc2c1)SC` (stereo not shown) [Compound No. 16, 2-(3-Bromo-quinolin-6-yloxy)-N-(2-ethoxyimino-1,1-dimethyl-ethyl)-2-methylsulfanyl-acetamide], the inhibition of growth at 20 ppm in series [2] is ≥ 60%. Further, the pest or weed control at 200 ppm in series [5], in series [6] and in series [8] was ≥ 60% throughout.

With `CCON=CC(C)(C)NC(=O)C(Oc1cc(C)c2ncc(Br)cc2c1)SC` (stereo not shown) [Compound No. 27, 2-(3-bromo-8-methyl-quinolin-6-yloxy)-N-(2-ethoxyimino-1,1-dimethyl-ethyl)-2-methylsulfanyl-acetamide], the inhibition of growth at 200 ppm in series [4] was ≥ 60%. In addition, the pest or weed control at 200 ppm in series [5] and in series [8] was ≥ 60% throughout.

`CSC(Oc1cc(C)c2ncc(Br)cc2c1)C(=O)NC(C)(C)C=NO` (stereo not shown) [Compound No. 31, 2-(3-Bromo-8-methyl-quinolin-6-yloxy)-N-(2-hydroxyimino-1,1-dimethyl-ethyl)-2-methylsulfanyl-acetamide]: the inhibition of growth at 20 ppm in series [2] is ≥ 60%. For the same compound, the pest or weed control at 200 ppm in [3], in series [5], in series [6] and in series [8] was ≥ 60% each time. Besides, the inhibition of growth at 200 ppm in series [9] is ≥ 60%.

For `C=CCON=CC(C)(C)NC(=O)C(Oc1cc(C)c2ncc(I)cc2c1)SC` (stereo not shown) [Compound No. 45, N-(2-Allyloxyimino-1,1-dimethyl-ethyl)-2-(3-iodo-8-methyl-quinolin-6-yloxy)-2-methylsulfanyl-acetamide], the pest or weed control at 200 ppm in [3], in series [5], in series [6], in series [7] and in series [8] was ≥ 60% in each case. Further, the inhibition of growth at 200 ppm in [4] is ≥ 60%.

Compound `CON=CC(C)(C#N)NC(=O)C(Oc1cc(C)c2ncc(I)cc2c1)SC` (stereo not shown) [Compound No. 55, N-(1-Cyano-2-methoxyimino-1-methyl-ethyl)-2-(3-iodo-8-methyl-quinolin-6-yloxy)-2-methylsulfanyl-acetamide] had a melting point of 166 to 168 °C. In series [1], the pest or weed control at 200 ppm was ≥ 60%. The inhibition of growth at 20 ppm in [2] is ≥ 60%. In series [3], the pest or weed control at 200 ppm was ≥ 60%. Also, in [10], the pest or weed control at 200 ppm is ≥ 60%. Moreover, the pest or weed control at 200 ppm in series [6] is ≥ 60%. The pest or weed control at 200 ppm in series [7] was ≥ 60%. The inhibition of growth at 200 ppm in series [9] is ≥ 60%. Besides, the pest or weed control at 200 ppm in series [8] was ≥ 60%.

As for `CON=CC(C)(C)NC(=O)C(OC)Oc1ccc2ncc(I)cc2c1` (stereo not shown) [Compound No. 72, 2-(3-Iodo-quinolin-6-yloxy)-2-methoxy-N-(2-methoxyimino-1,1-dimethyl-ethyl)-acetamide], the melting point lay in the range of 101 to 103 °C. The pest or weed control at 200 ppm in [1] is ≥ 60%. Also, the inhibition of growth at 20 ppm in series [2] was ≥ 60%. In addition, the pest or weed control at 200 ppm in [3] is ≥ 60%. Further, the pest or weed control at 200 ppm in series [10] was ≥ 60%. Besides, the inhibition of growth at 200 ppm in series [4] is ≥ 60%. Also, the pest or weed control at 200 ppm in [6] is ≥ 60%. Besides, the pest or weed control at 200 ppm in series [7] is ≥ 60%. Moreover, in series [9], the inhibition of growth at 200 ppm was ≥ 60%. Moreover, the pest or weed control at 200 ppm in [8] was ≥ 60%.

As for `CON=CC(C)(C)NC(=O)C(OC)Oc1cc(C)c2ncc(I)cc2c1` (stereo not shown) [Compound No. 73, 2-(3-Iodo-8-methyl-quinolin-6-yloxy)-2-methoxy-N-(2-methoxyimino-1,1-dimethyl-ethyl)-acetamide], the melting point was in the range of 126 to 128 °C. In addition, the pest or weed control at 200 ppm in [1] was ≥ 60%. Further, the inhibition of growth at 20 ppm in series [2] was ≥ 60%. Moreover, the pest or weed control at 200 ppm in series [3] was ≥ 60%. Moreover, in series [10], the pest or weed control at 200 ppm was ≥ 60%. Besides, the inhibition of growth at 200 ppm in [4] is ≥ 60%. For the same compound, the pest or weed control at 200 ppm in [6] was ≥ 60%. Also, the pest or weed control at 200 ppm in series [7] is ≥ 60%. Further, the inhibition of growth at 200 ppm in series [9] is ≥ 60%.

In the case of `C#Cc1cnc2c(Cl)cc(OC(SC)C(=O)NC(C)(C)C=NOCC)cc2c1` (stereo not shown) [Compound No. 116, 2-(8-Chloro-3-ethynyl-quinolin-6-yloxy)-N-(2-ethoxyimino-1,1-dimethyl-ethyl)-2-methylsulfanyl-acetamide], in [2], the inhibition of growth at 20 ppm is ≥ 60%. In addition, the pest or weed control at 200 ppm in [3], in series [5], in series [7] and in series [8] was ≥ 60% throughout. Moreover, in [4], the inhibition of growth at 200 ppm was ≥ 60%.

Turning to `C#Cc1cnc2c(Cl)cc(OC(SC)C(=O)NC(C)(C)C=NOCC=C)cc2c1` (stereo not shown) [Compound No. 117, N-(2-Allyloxyimino-1,1-dimethyl-ethyl)-2-(8-chloro-3-ethynyl-quinolin-6-yloxy)-2-methylsulfanyl-acetamide], the pest or weed control at 200 ppm in series [1], in [3], in series [5], in [6], in [7] and in series [8] was ≥ 60% throughout. Also, the inhibition of growth at 20 ppm in series [2] was ≥ 60%. Also, in [4], the inhibition of growth at 200 ppm is ≥ 60%.

For `C#Cc1cnc2ccc(OC(SC)C(=O)NC(C)(C)C=NOCC)cc2c1` (stereo not shown) [Compound No. 118, N-(2-Ethoxyimino-1,1-dimethyl-ethyl)-2-(3-ethynyl-quinolin-6-yloxy)-2-methylsulfanyl-acetamide], the pest or weed control at 200 ppm in [1], in series [3], in series [5], in series [6], in [7] and in series [8] was ≥ 60% in each case. The inhibition of growth at 20 ppm in series [2] was ≥ 60%. Also, the inhibition of growth at 200 ppm in series [4] was ≥ 60%.

In the case of `C#Cc1cnc2ccc(OC(SC)C(=O)NC(C)(C)C=NOCC=C)cc2c1` (stereo not shown) [Compound No. 120, N-(2-Allyloxyimino-1,1-dimethyl-ethyl)-2-(3-ethynyl-quinolin-6-yloxy)-2-methylsulfanyl-acetamide], the pest or weed control at 200 ppm in [1], in series [3], in series [5], in series [6], in series [7] and in series [8] was ≥ 60% in each case. Besides, the inhibition of growth at 20 ppm in [2] is ≥ 60%. The inhibition of growth at 200 ppm in [4] is ≥ 60%.
